Laboratory results taken from ChEMBL document CHEMBL3885881, “DrugMatrix”.

Species: Rattus norvegicus
Assay: DrugMatrix - Regimen: Daily Repeat
Format: toxicity, organism-based, Sprague-Dawley
Design: regimen Daily Repeat, gender Male, age 6-8 weeks
Settings: in vivo, po, route oral GAVAGE, vehicle 100 % SALINE; for ABSOLUTE BASOPHIL / ABSOLUTE EOSINOPHIL / ABSOLUTE LYMPHOCYTE / ABSOLUTE MONOCYTE / ABSOLUTE SEGMENTED NEUTROPHIL / BASOPHIL / EOSINOPHIL / ERYTHROCYTE COUNT / HEMATOCRIT / HEMOGLOBIN / LEUKOCYTE COUNT / LYMPHOCYTE / MEAN CORPUSCULAR HEMOGLOBIN / MEAN CORPUSCULAR HEMOGLOBIN CONCENTRATION / MEAN CORPUSCULAR VOLUME / MONOCYTE / NEUTROPHIL / NUCLEATED RED BLOOD CELLS / PLATELET COUNT: tissue Blood; for ALANINE AMINOTRANSFERASE / ALBUMIN / ALKALINE PHOSPHATASE / ASPARTATE AMINOTRANSFERASE / BLOOD UREA NITROGEN / CARBON DIOXIDE / CHLORIDE / CHOLESTEROL / CREATINE PHOSPHOKINASE / CREATININE / GLUCOSE / LACTATE DEHYDROGENASE / LIPASE / PHOSPHORUS / POTASSIUM / SODIUM / TOTAL BILIRUBIN / TOTAL PROTEIN / URIC ACID: tissue Plasma
[1] = 59 mg/kg, 120 h, dose level Low, time 5 day
[2] = 400 mg/kg, 72 h, dose level High, time 3 day
[3] = 400 mg/kg, 120 h, dose level High, time 5 day

NC(=O)NO [HYDROXYUREA]
ABSOLUTE BASOPHIL [1]: 0 CELLS/uL | ABSOLUTE EOSINOPHIL [1]: 40 CELLS/uL | ABSOLUTE LYMPHOCYTE [1]: 7014.67 CELLS/uL | ABSOLUTE MONOCYTE [1]: 87.67 CELLS/uL | ABSOLUTE SEGMENTED NEUTROPHIL [1]: 557.67 CELLS/uL | BASOPHIL [1]: 0% | EOSINOPHIL [1]: 0.67% | ERYTHROCYTE COUNT [1]: 5.35 x10E6/uL | HEMATOCRIT [1]: 34.53% | HEMOGLOBIN [1]: 13.4 G/DL | LEUKOCYTE COUNT [1]: 7.7 x10E3/uL | LYMPHOCYTE [1]: 90.67% | MEAN CORPUSCULAR HEMOGLOBIN [1]: 25.1 pg | MEAN CORPUSCULAR HEMOGLOBIN CONCENTRATION [1]: 38.83 G/DL | MEAN CORPUSCULAR VOLUME [1]: 64.63 fL | MONOCYTE [1]: 1% | NEUTROPHIL [1]: 7.67% | NUCLEATED RED BLOOD CELLS [1]: 0 /100WBC | PLATELET COUNT [1]: 1286 x10E3/uL | ALANINE AMINOTRANSFERASE [1]: 54 u/L | ALBUMIN [1]: 4.1 G/DL | ALKALINE PHOSPHATASE [1]: 381.33 u/L | ASPARTATE AMINOTRANSFERASE [1]: 80.33 u/L | BLOOD UREA NITROGEN [1]: 12.33 mg/dL | CARBON DIOXIDE [1]: 29.67 mmol/L | CHLORIDE [1]: 98 MEQ/L | CHOLESTEROL [1]: 64 mg/dL | CREATINE PHOSPHOKINASE [1]: 314.67 u/L | CREATININE [1]: 0.22 mg/dL | GLUCOSE [1]: 169.33 mg/dL | LACTATE DEHYDROGENASE [1]: 90.33 u/L | LIPASE [1]: 10.67 u/L | PHOSPHORUS [1]: 10.9 mg/dL | POTASSIUM [1]: 5.6 MEQ/L | SODIUM [1]: 143.13 MEQ/L | TOTAL BILIRUBIN [1]: 0.17 mg/dL | TOTAL PROTEIN [1]: 6.1 G/DL | URIC ACID [1]: 0.8 mg/dL | ABSOLUTE BASOPHIL [2]: 0 CELLS/uL | ABSOLUTE EOSINOPHIL [2]: 0 CELLS/uL | ABSOLUTE LYMPHOCYTE [2]: 4351 CELLS/uL | ABSOLUTE MONOCYTE [2]: 16 CELLS/uL | ABSOLUTE SEGMENTED NEUTROPHIL [2]: 133 CELLS/uL | BASOPHIL [2]: 0% | EOSINOPHIL [2]: 0% | ERYTHROCYTE COUNT [2]: 4.56 x10E6/uL | HEMATOCRIT [2]: 29.63% | HEMOGLOBIN [2]: 11.37 G/DL | LEUKOCYTE COUNT [2]: 4.5 x10E3/uL | LYMPHOCYTE [2]: 96.67% | MEAN CORPUSCULAR HEMOGLOBIN [2]: 24.93 pg | MEAN CORPUSCULAR HEMOGLOBIN CONCENTRATION [2]: 38.43 G/DL | MEAN CORPUSCULAR VOLUME [2]: 64.87 fL | MONOCYTE [2]: 0.33% | NEUTROPHIL [2]: 3% | NUCLEATED RED BLOOD CELLS [2]: 0 /100WBC | PLATELET COUNT [2]: 1033 x10E3/uL | ALANINE AMINOTRANSFERASE [2]: 39.67 u/L | ALBUMIN [2]: 3.97 G/DL | ALKALINE PHOSPHATASE [2]: 323.33 u/L | ASPARTATE AMINOTRANSFERASE [2]: 76 u/L | BLOOD UREA NITROGEN [2]: 10 mg/dL | CARBON DIOXIDE [2]: 30.33 mmol/L | CHLORIDE [2]: 100.67 MEQ/L | CHOLESTEROL [2]: 77.33 mg/dL | CREATINE PHOSPHOKINASE [2]: 221.33 u/L | CREATININE [2]: 0.2 mg/dL | GLUCOSE [2]: 154.67 mg/dL | LACTATE DEHYDROGENASE [2]: 79 u/L | LIPASE [2]: 9 u/L | PHOSPHORUS [2]: 10.53 mg/dL | POTASSIUM [2]: 5.6 MEQ/L | SODIUM [2]: 144.93 MEQ/L | TOTAL BILIRUBIN [2]: 0.1 mg/dL | TOTAL PROTEIN [2]: 5.93 G/DL | URIC ACID [2]: 0.53 mg/dL | ABSOLUTE BASOPHIL [3]: 0 CELLS/uL | ABSOLUTE EOSINOPHIL [3]: 0 CELLS/uL | ABSOLUTE LYMPHOCYTE [3]: 4141 CELLS/uL | ABSOLUTE MONOCYTE [3]: 8.33 CELLS/uL | ABSOLUTE SEGMENTED NEUTROPHIL [3]: 117.33 CELLS/uL | BASOPHIL [3]: 0% | EOSINOPHIL [3]: 0% | ERYTHROCYTE COUNT [3]: 4.75 x10E6/uL | HEMATOCRIT [3]: 30.23% | HEMOGLOBIN [3]: 11.9 G/DL | LEUKOCYTE COUNT [3]: 4.27 x10E3/uL | LYMPHOCYTE [3]: 97% | MEAN CORPUSCULAR HEMOGLOBIN [3]: 25.03 pg | MEAN CORPUSCULAR HEMOGLOBIN CONCENTRATION [3]: 39.37 G/DL | MEAN CORPUSCULAR VOLUME [3]: 63.63 fL | MONOCYTE [3]: 0.33% | NEUTROPHIL [3]: 2.67% | NUCLEATED RED BLOOD CELLS [3]: 0 /100WBC | PLATELET COUNT [3]: 955 x10E3/uL | ALANINE AMINOTRANSFERASE [3]: 47 u/L | ALBUMIN [3]: 3.97 G/DL | ALKALINE PHOSPHATASE [3]: 216.67 u/L | ASPARTATE AMINOTRANSFERASE [3]: 84.67 u/L | BLOOD UREA NITROGEN [3]: 11.33 mg/dL | CARBON DIOXIDE [3]: 28.67 mmol/L | CHLORIDE [3]: 100.67 MEQ/L | CHOLESTEROL [3]: 82 mg/dL | CREATINE PHOSPHOKINASE [3]: 362.67 u/L | CREATININE [3]: 0.1 mg/dL | GLUCOSE [3]: 158.67 mg/dL | LACTATE DEHYDROGENASE [3]: 74 u/L | LIPASE [3]: 8.67 u/L | PHOSPHORUS [3]: 10.1 mg/dL | POTASSIUM [3]: 5.3 MEQ/L | SODIUM [3]: 144.07 MEQ/L | TOTAL BILIRUBIN [3]: 0.1 mg/dL | TOTAL PROTEIN [3]: 5.87 G/DL | URIC ACID [3]: 0.47 mg/dL
